From patent US10597366B2, “Aryl ethers and uses thereof” (Peloton Therapeutics, Inc., priority 2013, dated 2020)
Where two headings read alike, the source gives them in different places.

Tested on: 786-O-Hif-Luc cells (luciferase gene driven by multiple HIF responsive elements)
Test: Luciferase Assay
Format: cell-based
Conditions: 24 h, read-out: Mean Luciferease EC50
Experimental: A pool of infected cells were then selected against 2 μg/mL of puromycin (P8833, Sigma) for 10 days followed by limited dilution to select single clones.
Each concentration was tested in triplicate. After about 24 hours, luciferase activity was determined using ONE-Glo Luciferase Assay Reagent (E6110, Promega) following the manufacturer's recommended procedure. EC50 were calculated by using Dotmatics software.

[1] = 786-O-Hif-Luc cells, about 24 hours

| SMILES | EC50 [1] | EC50 |
| --- | --- | --- |
| N#Cc1cc(F)cc(Oc2ccc(S(=O)(=O)C(F)(F)F)c3c2[C@@H](N)C[C@H]3O)c1 (relative stereo) [Compound 279, 3-((cis-3-amino-1-hydroxy-7-((trifluoromethyl)sulfonyl)-2,3-dihydro-1H-inden-4-yl)oxy)-5-fluorobenzonitrile] | 5900 nM | – |
| CS(=O)(=O)c1ccc(Oc2cc(F)cc(Cl)c2)c2c1C(O)CC2 (centres unmarked) [Compound 90, 4-(3-Chloro-5-fluorophenoxy)-7-(methylsulfonyl)-2,3-dihydro-1H-inden-1-ol] | 850 nM | – |
| O=S(=O)(c1ccc(Oc2ccc(F)c(Cl)c2)c2c1[C@H](O)C(F)(F)C2)C(F)(F)F [Compound 221, (S)-4-(3-Chloro-4-fluorophenoxy)-2,2-difluoro-7-((trifluoromethyl)sulfonyl)-2,3-dihydro-1H-inden-1-ol] | 26 nM | – |
| N#Cc1cc(F)cc(Oc2ccc(S(=O)(=O)CCO)c3c2CC(F)(F)C3O)c1 (centres unmarked) [Compound 250, 3-((2,2-Difluoro-1-hydroxy-7-((2-hydroxyethyl)sulfonyl)-2,3-dihydro-1H-inden-4-yl)oxy)-5-fluorobenzonitrile] | 2950 nM | – |
| CS(=O)(=O)c1ccc(Oc2cc(F)cc(C#N)c2)c2c1[C@H](N)C(F)(F)C2 [Compound 165, 3-[(1S)-1-Amino-2,2-difluoro-7-methylsulfonyl-indan-4-yl]oxy-5-fluoro-benzonitrile] | – | 240 nM |
| N#Cc1cncc(Oc2ccc(S(N)(=O)=O)c3c2CC(F)(F)[C@H]3O)c1 [Compound 253, (S)-7-((5-Cyanopyridin-3-yl)oxy)-2,2-difluoro-3-hydroxy-2,3-dihydro-1H-indene-4-sulfonamide] | 1080 nM | – |
| N#Cc1cccc(Oc2ccc(S(=O)(=O)C(F)F)c(CO)c2Cl)c1 [Compound 43, 3-(2-Chloro-4-((difluoromethyl)sulfonyl)-3-(hydroxymethyl)phenoxy)benzonitrile] | 790 nM | – |
| N#Cc1cc(Oc2ccc(S(=O)(=O)C(F)F)c3c2CC(F)(F)[C@H]3O)ccc1F [Compound 200, (S)-5-((7-((Difluoromethyl)sulfonyl)-2,2-difluoro-1-hydroxy-2,3-dihydro-1H-inden-4-yl)oxy)-2-fluorobenzonitrile] | 130 nM | – |
| O=S(=O)(c1ccc(Oc2ccc(F)c(Br)c2)c2c1[C@H](O)C(F)(F)C2)C(F)F [Compound 194, (S)-4-(3-Bromo-4-fluorophenoxy)-7-((difluoromethyl)sulfonyl)-2,2-difluoro-2,3-dihydro-1H-inden-1-ol] | 330 nM | – |
| CC(=O)c1c(S(=O)(=O)C(F)(F)F)ccc(Oc2cc(F)cc(Cl)c2)c1Br [Compound 104, 1-(2-Bromo-3-(3-chloro-5-fluorophenoxy)-6-((trifluoromethyl)sulfonyl)phenyl)ethan-1-one] | 12100 nM | – |
| Cc1c(S(=O)(=O)C(F)F)ccc(Oc2cc(F)cc(C#N)c2)c1C#N [Compound 33, 6-(3-Cyano-5-fluorophenoxy)-3-((difluoromethyl)sulfonyl)-2-methylbenzonitrile] | 2900 nM | – |
| CS(=O)(=O)c1ccc(Oc2cc(F)cc(C#N)c2)c2c1[C@H](O)C(F)(F)[C@@H]2O [Compound 312, 3-[(1S,3R)-2,2-difluoro-1,3-dihydroxy-7-methylsulfonyl-indan-4-yl]oxy-5-fluoro-benzonitrile] | 630 nM | – |
| CC(O)c1c(S(=O)(=O)C(F)(F)F)ccc(Oc2cc(F)cc(Cl)c2)c1Br (centres unmarked) [Compound 103, 1-(2-Bromo-3-(3-chloro-5-fluorophenoxy)-6-((trifluoromethyl)sulfonyl)phenyl)ethan-1-ol] | 3300 nM | – |
| CS(=O)(=NC#N)c1ccc(Oc2cc(F)cc(C#N)c2)c2c1[C@H](O)[C@H](F)C2 (stereo partly drawn) [Compound 302, N-(((2R,3S)-7-(3-cyano-5-fluorophenoxy)-2-fluoro-3-hydroxy-2,3-dihydro-1H-inden-4-yl)(methyl)(oxo)-λ^6-sulfanylidene)cyanamide] | 110 nM | – |
| Cc1c(S(C)(=O)=O)ccc(Oc2cc(F)cc(Cl)c2)c1C#N [Compound 50, 6-(3-Chloro-5-fluorophenoxy)-2-methyl-3-(methylsulfonyl)benzonitrile] | 1600 nM | – |
| CS(=O)(=O)c1ccc(Oc2cc(F)cc(Cl)c2)c2c1[C@H](O)C(F)(F)C2 [Compound 160, (1S)-4-(3-Chloro-5-fluoro-phenoxy)-2,2-difluoro-7-methylsulfonyl-indan-1-ol] | 10 nM | – |
| Cc1cc(S(=O)(=O)C(F)F)ccc1Oc1cc(F)cc(C#N)c1 [Compound 136, 3-[4-(Difluoromethylsulfonyl)-2-methyl-phenoxy]-5-fluoro-benzonitrile] | 2400 nM | – |
| N#Cc1cc(F)cc(Oc2ccc(S(N)(=O)=O)c3c2[C@H](F)C(F)(F)[C@H]3O)c1 [Compound 339, (1S,3S)-7-(3-cyano-5-fluoro-phenoxy)-1,2,2-trifluoro-3-hydroxy-indane-4-sulfonamide] | – | 250 nM |
| N#Cc1cc(F)cc(Oc2ccc(S(=O)(=O)C(F)F)c3c2CC(F)(F)C3O)c1 (centres unmarked) [Compound 11, 3-[7-(difluoromethylsulfonyl)-2,2-difluoro-1-hydroxy-indan-4-yl]oxy-5-fluoro-benzonitrile] | 16 nM | – |

| SMILES | EC50 [1] | EC50 |
| --- | --- | --- |
| O=S(=O)(c1ccc(Oc2cc(F)c(F)c3[nH]ncc23)c2c1C(O)C(F)(F)C2)C(F)(F)F (centres unmarked) [Compound 261, 4-((6,7-Difluoro-1H-indazol-4-yl)oxy)-2,2-difluoro-7-((trifluoromethyl)sulfonyl)-2,3-dihydro-1H-inden-1-ol] | 1650 nM | – |
| CS(=O)(=O)c1ccc(Oc2cc(F)cc(Cl)c2)c(C(F)F)c1CO [Compound 54, (3-(3-Chloro-5-fluorophenoxy)-2-(difluoromethyl)-6-(methylsulfonyl)phenyl)methanol] | 350 nM | – |
| N#Cc1cncc(Oc2ccc(S(=O)(=O)C(F)(F)F)c3c2CCC3O)c1 (centres unmarked) [Compound 220, 5-((1-Hydroxy-7-((trifluoromethyl)sulfonyl)-2,3-dihydro-1H-inden-4-yl)oxy)nicotinonitrile] | 2100 nM | – |
| O=S(=O)(c1ccc(Oc2cc(F)cc(Cl)c2)c(Cl)c1CCl)C(F)F [Compound 46, 2-Chloro-1-(3-chloro-5-fluorophenoxy)-3-(chloromethyl)-4-((difluoromethyl)sulfonyl)benzene] | 8100 nM | – |
| N#Cc1cc(F)cc(Oc2ccc(S(=O)(=O)C(F)(F)F)cc2Br)c1 [Compound 118, 3-(2-Bromo-4-((trifluoromethyl)sulfonyl)phenoxy)-5-fluorobenzonitrile] | 1500 nM | – |
| CNS(=O)(=O)c1ccc(Oc2cc(F)cc(C#N)c2)c2c1[C@H](O)C(F)(F)C2 [Compound 254, (S)-7-(3-Cyano-5-fluorophenoxy)-2,2-difluoro-3-hydroxy-N-methyl-2,3-dihydro-1H-indene-4-sulfonamide] | – | 120 nM |
| N#Cc1cccc(Oc2ccc(S(=O)(=O)C(F)(F)F)cc2Br)c1 [Compound 117, 3-(2-Bromo-4-((trifluoromethyl)sulfonyl)phenoxy)benzonitrile] | 3000 nM | – |
| Cc1cc(S(=O)(=O)C(F)F)ccc1Oc1cc(F)cc(Cl)c1 [Compound 135, 1-(3-Chloro-5-fluoro-phenoxy)-4-(difluoromethylsulfonyl)-2-methyl-benzene] | 5400 nM | – |
| O=S(=O)(CF)c1ccc(Oc2cccc3sccc23)c2c1C(O)C(F)(F)C2 (centres unmarked) [Compound 242, 4-(Benzo[b]thiophen-4-yloxy)-2,2-difluoro-7-((fluoromethyl)sulfonyl)-2,3-dihydro-1H-inden-1-ol] | 510 nM | – |
| CS(=N)(=O)c1ccc(Oc2cc(F)cc(F)c2)c2c1C(O)CC2 (centres unmarked) [Compound 190, (7-(3,5-Difluorophenoxy)-3-hydroxy-2,3-dihydro-1H-inden-4-yl)(imino)(methyl)-λ^6-sulfanone] | 12700 nM | – |
| Cn1cc(Oc2ccc(S(=O)(=O)C(F)(F)F)c3c2CC(F)(F)[C@H]3O)cn1 [Compound 224, (S)-2,2-Difluoro-4-((1-methyl-1H-pyrazol-4-yl)oxy)-7-((trifluoromethyl)sulfonyl)-2,3-dihydro-1H-inden-1-ol] | 180 nM | – |
| CS(=O)(=O)c1ccc(Oc2cc(C#N)cc(C(F)F)c2)c2c1C(O)CC2 (centres unmarked) [Compound 249, 3-(Difluoromethyl)-5-((1-hydroxy-7-(methylsulfonyl)-2,3-dihydro-1H-inden-4-yl)oxy)benzonitrile] | 1470 nM | – |
| O=S(=O)(c1ccc(Oc2ccc(F)cc2)c2c1C(O)CC2)C(F)(F)F (centres unmarked) [Compound 212, 4-(4-Fluorophenoxy)-7-((trifluoromethyl)sulfonyl)-2,3-dihydro-1H-inden-1-ol] | 1600 nM | – |
| O=S(=O)(c1ccc(Oc2ccc(F)c(Cl)c2)c2c1[C@H](O)CC2)C(F)F [Compound 157, (1R)-4-(3-Chloro-4-fluoro-phenoxy)-7-(difluoromethylsulfonyl)indan-1-ol] | 2500 nM | – |
| CS(=O)(=O)c1ccc(Oc2cc(F)cc(Cl)c2)c(C(F)F)c1C#N [Compound 92, 3-(3-Chloro-5-fluorophenoxy)-2-(difluoromethyl)-6-(methylsulfonyl)benzonitrile] | 490 nM | – |
| CS(=O)(=O)c1ccc(Oc2cc(F)cc(C#N)c2)c2c1[C@H](O)[C@H](F)[C@@H]2F [Compound 289, 3-[(1S,2S,3R)-2,3-difluoro-1-hydroxy-7-methylsulfonyl-indan-4-yl]oxy-5-fluoro-benzonitrile] | – | 4.2 nM |
| CNS(=O)(=O)c1ccc(Oc2cc(F)cc(F)c2)c2c1[C@H](O)C(F)(F)C2 [Compound 251, (S)-7-(3,5-Difluorophenoxy)-2,2-difluoro-3-hydroxy-N-methyl-2,3-dihydro-1H-indene-4-sulfonamide] | – | 53 nM |
| CS(=O)(=O)c1ccc(Oc2cncc(Br)c2)c2c1[C@H](O)C(F)(F)C2 [Compound 324, (S)-4-((5-Bromopyridin-3-yl)oxy)-2,2-difluoro-7-(methylsulfonyl)-2,3-dihydro-1H-inden-1-ol] | 480 nM | – |
| N#Cc1cc(F)cc(Oc2ccc(S(=O)(=O)C(F)F)c(C#N)c2Cl)c1 [Compound 39, 2-Chloro-3-(3-cyano-5-fluorophenoxy)-6-((difluoromethyl)sulfonyl)benzonitrile] | 600 nM | – |
